From the NIST ThermoML archive (doi:10.1016/j.jct.2013.09.039)
± gives the expanded uncertainty stated by the source.

Conditions: Liquid, Vibrating tube method

Cc1ccc(C)cc1 [1,4-dimethylbenzene]
mass density [kg/m3]
Conditions | 100 kPa | 5000 kPa | 10000 kPa | 20000 kPa | 30000 kPa | 40000 kPa
288.15 K | 864.9 ± 2 | 868.3 ± 2 | 871.8 ± 2 | 878.1 ± 2 | 884 ± 2 | 889.7 ± 2
298.15 K | 856.2 ± 2 | 860.2 ± 2 | 863.5 ± 2 | 870.1 ± 2 | 876.5 ± 2 | 882.2 ± 2
308.15 K | 847.5 ± 2 | 851.4 ± 2 | 855.2 ± 2 | 862.1 ± 2 | 868.6 ± 2 | 874.8 ± 2
